Source: patent US6822146B2, “Sulfonylurea-tolerant sunflower line M7” (priority 2000, dated 2004)
Structures can show the parent of a compound that is named as a salt.

Legend:
BC4-M5M11 = experiment: Test B greenhouse phytotoxicity, BC4-M5M11; assay type: in vivo, sunflower
Protocol: (§1) A greenhouse experiment was conducted to evaluate the spectrum of tolerance of three homozygous resistant mutants to various herbicides inhibiting acetolactate synthase (ALS) as their mode of action. The inbred lines tested were the 5th generation self-pollinated maintainers, M5M7, M5M11 and M5M12, as well as the 4th generation male sterile back-crosses BC4-M5M7, BC4-M5M11 and BC4-M5M12. Treatments of formulated herbicides were applied post-emergence at the 4-leaf stage. Application rates of the test herbicides were chosen to coincide with the rates commonly used in the crops for which they are registered. The application rate of imazethapyr was chosen to match the rate recommended to control parasitic weeds in sunflowers by L. García-Torres et al., Weed Technology 1995, 9, 819-824. Wild type H89 inbred sunflower was not included in this test, because the many of the tested herbicides are known to be efficacious in controlling volunteer sunflower as a weed. Treatments were replicated twice. […] A rating of 0% phytotoxicity means no crop injury.

M5M7 = experiment: Test B greenhouse phytotoxicity, M5M7; assay type: in vivo, sunflower
Protocol: as §1

[1] = test system: homozygous progeny of the three mutant sources; assay type: in vivo, sunflower; conditions: Test B application rates, post-emergence
Protocol: as §1

M5M11 = experiment: Test B greenhouse phytotoxicity, M5M11; assay type: in vivo, sunflower
Protocol: as §1

BC4-M5M12 = experiment: Test B greenhouse phytotoxicity, BC4-M5M12; assay type: in vivo, sunflower
Protocol: as §1

M5M12 = experiment: Test B greenhouse phytotoxicity, M5M12; assay type: in vivo, sunflower
Protocol: as §1

BC4-M5M7 = experiment: Test B greenhouse phytotoxicity, BC4-M5M7; assay type: in vivo, sunflower
Protocol: as §1

GA-M4M11 × RHA274 = experiment: Test A field trial, phytotoxicity, variety D; assay type: in vivo, sunflower; conditions: variety D; 20 g a.i./ha post-emergence
From the text: (§2) To generate the hybrids C, D and E, the fourth generation self-pollinated maintainer mutant lines M4M12, M4M11 and M4M7 were chemically sterilized by applying at the bud “star” flower stage a small amount of gibberellic acid solution to sterilize the pollen according to the general method described in Sunflower Science Technology, J. F. Carter ed. (Number 19 in the series “Agronomy”) pp. 339-386. This treatment enables maintainer plants to behave as CMS inbred lines and allows the production of heterozygous resistant hybrids, with the herbicide resistant source coming from the female side. Such crosses allowed evaluating the sexual effect of the mutation source when introduced on the female side of a cross as described in crosses C, D and E versus the male side of a cross as described in crosses F, G and H. Labels I, J and K identify third generation CMS mutant lines crossed with fourth generation maintainer lines to maintain the highly heritable mutant trait in a male sterile homozygous resistant environment. One skilled in sunflower breeding art understands the meaning of such crosses.
(§3) A rating of 0% phytotoxicity means no crop injury.

BC3-M4M11 = experiment: Test A field trial, phytotoxicity, variety J; assay type: in vivo, sunflower; conditions: variety J; 20 g a.i./ha post-emergence
From the text: as §2, §3

GA-M4M7 × RHA274 = experiment: Test A field trial, phytotoxicity, variety E; assay type: in vivo, sunflower; conditions: variety E; 20 g a.i./ha post-emergence
From the text: as §2, §3

[2] = test system: Homozygous resistant inbred lines, BC3-M4M12 (I), BC3-M4M11 (J) and BC3-M4M7 (K); experiment: Test A summary, homozygous resistant inbred lines; conditions: Test A application rates; triflusulfuron-methyl at 20 g a.i./ha
Protocol: In a small field trial, the sunflower varieties described in Table 4 were sprayed post-emergence with a variety of sulfonylurea herbicide treatments.
Broadcast post-emergence applications of formulated sulfonylurea herbicides were performed at the 6-leaf development stage using four randomly distributed replications. Application rates were chosen to match the usual use rates of these herbicides in the crops they are registered in Europe. All herbicides except for metsulfuron-methyl were sprayed in combination with Citowet® non-ionic ethoxylated alcohol at 0.25% volume of formulated product per volume of water applied per hectare.
The evaluation of the maximum (i.e. peak) injury to sunflower varieties by sulfonylurea herbicides was measured by visual ratings, which are listed in Table 5. A rating of 0% phytotoxicity means no crop injury. […] A rating of 100% means the complete destruction of all plants.

BC3-M4M12 = experiment: Test A field trial, phytotoxicity, variety I; assay type: in vivo, sunflower; conditions: variety I; 20 g a.i./ha post-emergence
From the text: as §2, §3

[3] = test system: Hybrid control: H89A × RHA274; assay type: in vivo, sunflower; conditions: variety A; 20 g a.i./ha post-emergence
From the text: as §2, §3

H89A × M4M11 = assay type: in vivo, sunflower; conditions: variety G; 20 g a.i./ha post-emergence
From the text: as §2, §3

H89A × M4M7 = assay type: in vivo, sunflower; conditions: variety H; 20 g a.i./ha post-emergence
From the text: as §2, §3

H89A × M4M12 = assay type: in vivo, sunflower; conditions: variety F; 20 g a.i./ha post-emergence
From the text: as §2, §3

[4] = test system: Inbred line control: H89A; assay type: in vivo, sunflower; conditions: variety B; 20 g a.i./ha post-emergence
From the text: as §2, §3

BC3-M4M7 = experiment: Test A field trial, phytotoxicity, variety K; assay type: in vivo, sunflower; conditions: variety K; 20 g a.i./ha post-emergence
From the text: as §2, §3

GA-M4M12 × RHA274 = experiment: Test A field trial, phytotoxicity, variety C; assay type: in vivo, sunflower; conditions: variety C; 20 g a.i./ha post-emergence
From the text: as §2, §3

Orobanche cumana = experiment: Test E control of Orobanche cumana in resistant sunflower hybrid; assay type: in vivo
Protocol: The effect of the various treatments was evaluated 35 days after sowing. The sunflower roots were cleaned by washing in water, and the presence of Orobanche nodules was determined visually and by weighing root wet mass in comparison to check plants free of Orobanche infestation. […] The nodules caused by Orobanche increased root weight, and a correlation (r=0.7) was found between visual scores and weight measurements. Thus the weighing technique could be used to corroborate visual efficacy scorings. Orobanche emergence was also scored but found to be less useful to evaluate treatment efficiency at the evaluation timing of this test.
(§4) Based on the results from Test D, a modified protocol was developed to include three timings of post-emergence treatment. The hybrid BC4-M5M12 (female parent)×PHA155 restorer line (male parent) described in Test C was used in this test. Various herbicide programs were tested using three replications. […] Seed coatings of these formulated herbicides were applied to 6 kg of seeds in such amount that considering the distribution of the coated seeds in each pot, the herbicide active ingredient (a.i.) application rates per hectare were as indicated.
(§5) The treatments were applied similar to the methods described for Test D. Pre-emergence applications were broadcast only, not soil incorporated. For pre-emergence application, the pots were sprayed using the high rates of the herbicides two days after sowing the sunflower seeds. Post-emergence treatments were applied at the 4-6 leaf stage of sunflower (corresponding to early stage of Orobanche attachment; identified as “T1”), the 6-8 leaf stage of sunflower (corresponding to the mid stage of Orobanche attachment; nodules <5 mm diameter; identified as “T2”) and 8-12 leaf stage of sunflower (corresponding to late stage of Orobanche attachment; identified as “T3”). The mid-stage applications included the high as well as low application rates of each herbicide.
(§6) For comparison were also included in this test other acetolactate synthase-inhibiting herbicides reported in the literature as giving good weed control of Orobanche (L. García-Torres et al., Weed Research 1994, 34, 395-402; L. García-Torres et al., Weed Technology 1995, 9, 819-824; J. Hershenhorn et al., Weed Technology 1998, 12, 108-114).

[5] = test system: BC4-M5M12 × PHA155 hybrid; experiment: Test E injury to sunflower hybrid; assay type: in vivo; conditions: in vivo
Protocol: as §4, §5, §6

BC4-M5M7 × PHA155 = experiment: Test C field phytotoxicity, BC4-M5M7 × PHA155; assay type: in vivo, sunflower
From the text: as §3

BC4-M5M12 × PHA155 = experiment: Test C field phytotoxicity, BC4-M5M12 × PHA155; assay type: in vivo, sunflower
From the text: as §3

[6] = postemergence 6.25 g a.i./ha, 7 DAT
[7] = postemergence 6.25 g a.i./ha, 15 DAT
[8] = postemergence 6.25 g a.i./ha, 30 DAT
[9] = postemergence 12.5 g a.i./ha, 7 DAT
[10] = postemergence 12.5 g a.i./ha, 15 DAT
[11] = postemergence 12.5 g a.i./ha, 30 DAT

Row | Compound | Maximum Phytotoxicity (BC4-M5M11; in vivo) [%] | Maximum Phytotoxicity (M5M7; in vivo) [%] | tolerance of the mutants [1] | Maximum Phytotoxicity (M5M11; in vivo) [%] | Maximum Phytotoxicity (BC4-M5M12; in vivo) [%] | Maximum Phytotoxicity (M5M12; in vivo) [%] | Maximum Phytotoxicity (BC4-M5M7; in vivo) [%] | also measured
1 | COc1cc(OC)nc(NC(=O)NS(=O)(=O)N(C)S(C)(=O)=O)n1 [Amidosulfuron, amidosulfuron] | 57.5 | 52.5 | somewhat sensitive | 60 | 55 | 45 | 47.5 | 
2 | COc1nc(C)nc(NC(=O)NS(=O)(=O)c2ccccc2OCCCl)n1 [Triasulfuron, triasulfuron] |  |  |  |  |  |  |  | Maximum Phytotoxicity (GA-M4M11 × RHA274): 99%; Maximum Phytotoxicity (BC3-M4M11): 95%; Maximum Phytotoxicity (GA-M4M7 × RHA274): 97%; tolerance of homozygous resistant inbred lines I, J, K [2]: as susceptible as the standards; Maximum Phytotoxicity (BC3-M4M12): 93%; Maximum Phytotoxicity [3]: 100%; Maximum Phytotoxicity (H89A × M4M11): 98%; Maximum Phytotoxicity (H89A × M4M7): 98%; Maximum Phytotoxicity (H89A × M4M12): 98%; Maximum Phytotoxicity [4]: 100%; Maximum Phytotoxicity (BC3-M4M7): 95%; Maximum Phytotoxicity (GA-M4M12 × RHA274): 94%
3 | CCc1cnc(C2=NC(C)(C(C)C)C(=O)N2)c(C(=O)O)c1 (stereo not drawn) [Imazethapyr (ammonium salt), Imazethapyr] | 25 | 22.5 | marginal tolerance | 30 | 30 | 22.5 | 20 | relative efficacy in controlling Orobanche (Orobanche cumana; Test E rates, metsulfuron-methyl compared with tribenuron-methyl): less efficacious in controlling Orobanche; Control (Orobanche cumana; pre-emergence 40 g a.i./ha): 60%; Injury [5]: 0%
4 | COC(=O)c1c(Cl)nn(C)c1S(=O)(=O)NC(=O)Nc1nc(OC)cc(OC)n1 [Halosulfuron-methyl, halosulfuron-methyl] |  |  | somewhat sensitive |  |  |  |  | Maximum Phytotoxicity (BC4-M5M11; BC4-M5M11, 45 g a.i./ha post-emergence 4-leaf stage): 65%; Maximum Phytotoxicity (M5M7; M5M7, 45 g a.i./ha post-emergence 4-leaf stage): 50%; Maximum Phytotoxicity (M5M11; M5M11, 45 g a.i./ha post-emergence 4-leaf stage): 60%; Maximum Phytotoxicity (BC4-M5M12; BC4-M5M12, 45 g a.i./ha post-emergence 4-leaf stage): 65%; Maximum Phytotoxicity (M5M12; M5M12, 45 g a.i./ha post-emergence 4-leaf stage): 60%; Maximum Phytotoxicity (BC4-M5M7; BC4-M5M7, 45 g a.i./ha post-emergence 4-leaf stage): 60%
5 | CCS(=O)(=O)c1nc2ccccn2c1S(=O)(=O)NC(=O)Nc1nc(OC)cc(OC)n1 [Sulfosulfuron] | 57.5 | 50 | somewhat sensitive | 60 | 50 | 65 | 47.5 | 
6 | COc1cc(OC)nc(Sc2cccc(Cl)c2C(=O)O)n1 [Pyrithiobac-sodium] | 42.5 | 37.5 | somewhat sensitive | 50 | 40 | 40 | 35 | 
7 | CCOC(=O)c1ccccc1S(=O)(=O)NC(=O)Nc1nc(Cl)cc(OC)n1 [Chlorimuron-ethyl, chlorimuron-ethyl] |  |  |  |  |  |  |  | Phytotoxicity Rating After Treatment (BC4-M5M7 × PHA155; [6]): 83%; Phytotoxicity Rating After Treatment (BC4-M5M7 × PHA155; [7]): 73%; Phytotoxicity Rating After Treatment (BC4-M5M7 × PHA155; [8]): 67%; Phytotoxicity Rating After Treatment (BC4-M5M7 × PHA155; [9]): 85%; Phytotoxicity Rating After Treatment (BC4-M5M7 × PHA155; [10]): 83%; Phytotoxicity Rating After Treatment (BC4-M5M7 × PHA155; [11]): 83%; Phytotoxicity Rating After Treatment (BC4-M5M12 × PHA155; [6]): 70%; Phytotoxicity Rating After Treatment (BC4-M5M12 × PHA155; [7]): 80%; Phytotoxicity Rating After Treatment (BC4-M5M12 × PHA155; [8]): 68%; Phytotoxicity Rating After Treatment (BC4-M5M12 × PHA155; [9]): 80%; Phytotoxicity Rating After Treatment (BC4-M5M12 × PHA155; [10]): 90%; Phytotoxicity Rating After Treatment (BC4-M5M12 × PHA155; [11]): 88%
8 | COC(=O)c1ccc(C(F)(F)F)nc1S(=O)(=O)NC(=O)Nc1nc(OC)cc(OC)n1 [Flupyrsulfuron-methyl-sodium] | 60 | 62.5 | somewhat sensitive | 50 | 50 | 57.5 | 42.5 | 
